Key:
Format in all cases: cell-based, human
HepG2.2.15 cells [1] = test: TNF-α production of TCR T cells after overnight co-culture with HepG2.2.15 cells; settings: clinically relevant concentration
Experimental: FIGS. 1A and 1B show functional profiles of 5183-electroporated T cells treated with tacrolimus. Cytokine production (TNF-α as a representative) of drug-treated S183 TCR-T cells was evaluated following overnight co-culture with HepG2.215 cells. FIG. 1A: Concatenated dot plots (left panel) from representative experiments stained for TNF-α production. […] Non-treated electroporated T cells used as negative control. FIG. 1B: Drug effect on T cell cytolysis determined through impedance measurement. The Normalized Cell Index plot was converted to an area under the curve, and quantified to measure the percentage of cytolysis ˜45 hours after S183-TCR T cell addition. […] Statistical significance was evaluated by 2-tailed t test. […]
FIG. 3A: S183 TCR and mutant CnB m-RNA were co-electroporated and T cell function was evaluated following overnight co-culture with HepG2.2.15 cells. FIG. 3B: Viability and TCR expression of engineered T cells evaluated 24 hours post-electroporation. […] FIG. 3C: Frequency of TNF-α-producing CD8+ cells out of total live CD8+ T cells were quantified following overnight incubation with the targets (n=3). […]
FIG. 5A: Sequence information of siRNA specific for FKBP1A. FIG. 5B: Frequency of TNF-α-producing CD8+ cells out of total live CD8+ T cells were quantified following overnight incubation with the targets and different concentrations of Tacrolimus (n=3). […]

T cells = test: Viability of engineered T cells exposed to immunosuppressants; settings: clinically relevant concentration, 48 hours exposure
Experimental: Intracellular cytokine staining and viability analysis were performed at the indicated time after treatment.

HepG2.2.15 cells [2] = test: T cell cytolysis by impedance measurement (real time killing assay); settings: clinically relevant doses, FIG. 1B
Experimental: FIGS. 1A and 1B show functional profiles of 5183-electroporated T cells treated with tacrolimus. Cytokine production (TNF-α as a representative) of drug-treated S183 TCR-T cells was evaluated following overnight co-culture with HepG2.215 cells. FIG. 1A: Concatenated dot plots (left panel) from representative experiments stained for TNF-α production. […] Non-treated electroporated T cells used as negative control. FIG. 1B: Drug effect on T cell cytolysis determined through impedance measurement. The Normalized Cell Index plot was converted to an area under the curve, and quantified to measure the percentage of cytolysis ˜45 hours after S183-TCR T cell addition. Each dot represents one individual experiment in bar graphs. Statistical significance was evaluated by 2-tailed t test. […]
FIGS. 6A, 6B and 6C show dual-resistant TCR-redirected T cells were produced by electroporating 3 mRNAs (HBV TCR, CnB mutant and IMPDH mutant) into the T cells. FIG. 6A: Frequency of TNF-α-producing CD8+ cells out of total live CD8 T cells was quantified following overnight incubation with the targets (n=3). […] FIG. 6B: T cell cytolysis determined by real time killing assay in the presence and absence of both drugs. […] FIG. 6C: Viability of dual resistant TCR-T cells evaluated 72 hours after exposure to clinically relevant concentration of both drugs.

Row | SMILES | effect on T cell function and killing (HepG2.2.15 cells [1]) | effect on viability of modified TCR-T cells (T cells) | effect on T cell TNF-α production (HepG2.2.15 cells [1]; 12 hours incubation with HepG2.2.15 cells) | loss of cytolytic activity of treated T cells (HepG2.2.15 cells [2])
1 | COc1c(C)c2c(c(O)c1C/C=C(\C)CCC(=O)OCCN1CCOCC1)C(=O)OC2 [MMF, Mycophenolate mofetil] | does not impair T cell function and killing | markedly decreases the viability |  | 
2 | C=CC[C@@H]1/C=C(\C)C[C@H](C)C[C@H](OC)[C@H]2O[C@@](O)(C(=O)C(=O)N3CCCC[C@H]3C(=O)O[C@H](/C(C)=C/[C@@H]3CC[C@@H](O)[C@H](OC)C3)[C@H](C)[C@@H](O)CC1=O)[C@H](C)C[C@@H]2OC [Tacrolimus] |  |  | can impair T cell TNF-α production | ≤ 50 % of the non-treated control
